IC50 data for 27 molecules are collected here from patent US20090105283A1, “3-HYDROQUINAZOLIN-4-ONE DERIVATIVES FOR USE AS STEAROYL CoA DESATURASE INHIBITORS” (priority 2007, published 2009).

“And” between values parts separate entries of the source, which are not always exact repeats. Equal entries are not always repeated.

For this assay, the target named is T1, stearoyl-CoA desaturase (SCD) (Rattus norvegicus, UniProt P07308).
T1 construct: The microsomes were quickly thawed and added to assay buffer so that a concentration of 0.4 mg/ml was achieved; from tissue
T1 sequence (P07308 1-358): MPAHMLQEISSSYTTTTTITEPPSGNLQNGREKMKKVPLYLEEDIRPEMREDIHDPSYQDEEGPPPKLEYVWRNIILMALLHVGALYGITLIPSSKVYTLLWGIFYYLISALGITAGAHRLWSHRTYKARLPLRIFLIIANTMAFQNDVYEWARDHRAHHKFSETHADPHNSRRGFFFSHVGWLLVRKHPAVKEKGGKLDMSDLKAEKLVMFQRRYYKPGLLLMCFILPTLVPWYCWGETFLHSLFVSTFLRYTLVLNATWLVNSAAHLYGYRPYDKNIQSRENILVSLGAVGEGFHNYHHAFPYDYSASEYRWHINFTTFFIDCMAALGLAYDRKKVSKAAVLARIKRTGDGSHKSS
The experiment in a line: SCD assay with rat liver microsomes ([3H]stearoyl CoA, adapted from Talamo and Bloch). In kind it is biochemical. The conditions noted are these: Table 1; rat liver microsomes 0.2 mg/ml assay final, [3H]stearoyl CoA substrate, 30 min preincubation, 45 min reaction, room temperature. The text has this:
Male Spraque Dawley Rats were placed on regimented fasting protocol for one week to stimulate SCD enzymatic activity. 48-hour periods were alternated between feeding and fasting to induce and down-regulate SCD activity with SCD activity being induced via carbohydrate rich diet prior to liver perfusion and collection.
The rats were anesthetized with Isoflurane inhalation anesthetic, the liver perfused with cold phosphate buffered saline (PBS), weighed, and chilled in cold homogenization buffer (250 mM sucrose, 10 mM Tris, 1 mM EDTA, pH 7.6.
The livers were finely minced and placed in homogenization tube. 40 mL of homogenization buffer was added to the homogenization tube and the liver homogenized and centrifuged in a pre-chilled […] for 10 min at 4° C.
Following centrifugation, the supernatant was collected and the pellet removed and discarded. The supernatant was centrifuge at 10,000 G for 35 minutes. Following centrifugation, the supernatant was collect and the pellet discarded. The supernatant was then centrifuged in a pre-chilled 45-Ti rotor at 130,000 G (41,000 RPM) for 90 minutes at 4° C.
The supernatant was then aspirated off and the collected microsomal pellet washed in 25 mL of Glycerol PBS (1×PBS 7.4, 20% Glycerol) and resuspended in 4-5 volumes of Glycerol PBS.
The protein concentration of the microsomal preparation was determined by BCA assay (Pierce) and the microsomes were aliquoted and stored at −80° C.
Biobeads were ground to a smaller size in a mortar and pestle and resuspended in 3.6% TCA. The beads were then filtered through […] mesh.
SCD was determined in the desaturase assay buffer. This assay buffer contained 0.1 M Tris buffer, pH 7.2, 2 mM NADH, 4.8 mM ATP, 0.5 mM CoA, 4.8 mM MgCl2, and 0.1% BSA.
1 μl of each compound of Formula I was added to an assay plate by a low volume (0.5-10 μL) multichannel pipette. A DMSO control was also prepared. The microsomes were quickly thawed and added to assay buffer so that a concentration of 0.4 mg/ml was achieved (0.2 mg/ml assay final). 50 μl of the microsome suspension in assay buffer was then added into each well in the compound assay plate, the plate was covered, and the microsomes preincubated with the compounds for 30 minutes on the orbital shaker, 50-75 rpm, at room temperature.
The reaction mixtures were then incubated for 45 minutes on the orbital shaker at 50-75 rpm at room temperature.
The reaction was terminated by the addition of 10 μl of 21% trichloroacetic acid (TCA) to the reaction mixture followed incubation on the orbital shaker for 30 minutes at 50-75 rpm at room temperature followed by centrifugation for 5 minutes at 3700 rpm.
50 μl of a 6% Bio-Bead suspension in H2O was added to the reaction mixture and the assay plate was sealed. The Bio-Bead mixture was incubated on the orbital shaker for 1 hour, 100-150 rpm at room temperature, and then the mixture was centrifuged at 2000 g for 5 minutes to pellet the Bio-Beads.
25 μl of the supernatant was harvested from each well and transferred to a detection plate. 100 μl of OptiPhase SuperMix scinitillation cocktail (containing sufficient NaOH to neutralize the TCA) was added and the solutions mixed by vigorous shaking (300-400 rpm) for 5 minutes at room temperature.
Consider `O=C(Nc1ccc2ncn(Cc3ccc(Cl)c(Cl)c3)c(=O)c2c1)Oc1ccc(Cl)cc1` [LXX, N-{3-[(3,4-dichlorophenyl)methyl]-4-oxo(3-hydroquinazolin-6-yl)}(4-chlorophenoxy)carboxamide], for which the 50% inhibitory concentration (IC50) came out at 3220 nM.
With `O=C(Nc1ccc2ncn(Cc3ccc(Cl)c(Cl)c3)c(=O)c2c1)OCCc1ccccc1` [LXXI, N-{3-[(3,4-dichlorophenyl)methyl]-4-oxo(3-hydroquinazolin-6-yl)}(2-phenylethoxy)carboxamide] the figure was 4380 nM; with `CC(=O)OCC(=O)Nc1ccc2c(=O)n(Cc3cccc(F)c3)cnc2c1` [LXXII, (N-{3-[(3-fluorophenyl)methyl]-4-oxo-3-hydroquinazolin-7-yl}carbamoyl)methyl acetate], 290 nM.
The figure for `O=C(Nc1ccc2c(=O)n(Cc3ccc(F)c(Cl)c3)cnc2c1)OCc1ccccc1` [LXXIII, N-{3-[(3-chloro-4-fluorophenyl)methyl]-4-oxo(3-hydroquinazolin-7-yl)}(phenylmethoxy)carboxamide] is 290 nM.
Take `O=C(Nc1ccc2c(=O)n(Cc3ccc(F)c(Cl)c3)cnc2c1)OCc1cccnc1` [LXXIV, N-{3-[(3-chloro-4-fluorophenyl)methyl]-4-oxo(3-hydroquinazolin-7-yl)}(3-pyridylmethoxy)carboxamide]: inhibition was half-maximal at 120 nM (IC50). This IC50 lies about 2.4-fold lower than the previous one.
The figure for `O=C(Nc1ccc2ncn(Cc3ccc(Cl)c(Cl)c3)c(=O)c2c1)OCc1ccncc1` [LXXIX, N-{3-[(3,4-dichlorophenyl)methyl]-4-oxo(3-hydroquinazolin-6-yl)}(4-pyridylmethoxy)carboxamide] is 1000 nM.
With `CC(=O)OCC(=O)Nc1ccc2c(=O)n(Cc3ccc(F)c(Cl)c3)cnc2c1` [LXXV, (N-{3-[(3-chloro-4-fluorophenyl)methyl]-4-oxo-3-hydroquinazolin-7-yl}carbamoyl)methyl acetate] the figure was 1090 nM; with `O=C(Nc1ccc2c(=O)n(Cc3cccc(F)c3)cnc2c1)OCc1cccnc1` [LXXVI, N-{3-[(3-fluorophenyl)methyl]-4-oxo(3-hydroquinazolin-7-yl)}(3-pyridylmethoxy)carboxamide], 1340 nM.
In the case of `O=C(Nc1ccc2c(=O)n(Cc3ccc(Cl)c(F)c3)cnc2c1)OCc1cccnc1` [LXXVII, N-{3-[(4-chloro-3-fluorophenyl)methyl]-4-oxo(3-hydroquinazolin-7-yl)}(3-pyridylmethoxy)carboxamide], the IC50 amounted to 250 nM.
With `CC(=O)OCC(=O)Nc1ccc2c(=O)n(Cc3ccc(Cl)c(F)c3)cnc2c1` [LXXVIII, (N-{3-[(4-chloro-3-fluorophenyl)methyl]-4-oxo-3-hydroquinazolin-7-yl}carbamoyl)methyl acetate] the figure was 1020 nM; with `N#Cc1cccc(COC(=O)Nc2ccc3ncn(Cc4ccc(Cl)c(Cl)c4)c(=O)c3c2)c1` [LXXX, N-{3-[(3,4-dichlorophenyl)methyl]-4-oxo(3-hydroquinazolin-6-yl)}[(3-cyanophenyl)methoxy]carboxamide], 670 nM; with `O=C(CO)Nc1ccc2c(=O)n(Cc3ccc(Cl)cc3)cnc2c1` [LXXXI, N-{3-[(4-chlorophenyl)methyl]-4-oxo(3-hydroquinazolin-7-yl)}-2-hydroxyacetamide], 3120 nM.
With `O=C(CO)Nc1ccc2c(=O)n(Cc3ccc(Cl)c(Cl)c3)cnc2c1` [LXXXII, N-{3-[(3,4-dichlorophenyl)methyl]-4-oxo(3-hydroquinazolin-7-yl)}-2-hydroxyacetamide] the figure was 350 nM; with `O=C(Nc1ccc2c(=O)n(Cc3ccc(Cl)c(F)c3)cnc2c1)OCc1ccccc1` [LXXXIII, N-{3-[(4-chloro-3-fluorophenyl)methyl]-4-oxo(3-hydroquinazolin-7-yl)}(phenylmethoxy)carboxamide], 210 nM; with `CN(CCOC(=O)Nc1ccc2ncn(Cc3ccc(Cl)c(Cl)c3)c(=O)c2c1)Cc1ccccc1` [LXXXIV, N-{3-[(3,4-dichlorophenyl)methyl]-4-oxo(3-hydroquinazolin-6-yl)}{2-[methylbenzylamino]ethoxy}carboxamide], 11000 nM.
`O=C(Nc1ccc2ncn(Cc3ccc(Cl)c(Cl)c3)c(=O)c2c1)OCc1ccccn1` [LXXXIX, N-{3-[(3,4-dichlorophenyl)methyl]-4-oxo(3-hydroquinazolin-6-yl)}(2-pyridylmethoxy)carboxamide] had an IC50 of 780 nM.
With `O=C(Nc1ccc2ncn(Cc3ccc(Cl)c(Cl)c3)c(=O)c2c1)OCC1CC1` [LXXXV, N-{3-[(3,4-dichlorophenyl)methyl]-4-oxo(3-hydroquinazolin-6-yl)}(cyclopropylmethoxy)carboxamide] the figure was 2970 nM.
With `CN(C)CC(=O)OCC(=O)Nc1ccc2ncn(Cc3ccc(Cl)c(Cl)c3)c(=O)c2c1` [LXXXVI, (N-{3-[(3,4-dichlorophenyl)methyl]-4-oxo-3-hydroquinazolin-6-yl}carbamoyl)methyl 2-(dimethylamino)acetate] the figure was 360 nM; with `O=C(CO)Nc1ccc2c(=O)n(Cc3ccc(F)c(Cl)c3)cnc2c1` [LXXXVII, N-{3-[(3-chloro-4-fluorophenyl)methyl]-4-oxo(3-hydroquinazolin-7-yl)}-2-hydroxyacetamide], 2320 nM and 2230 nM; with `O=C(NCc1ccccc1)Nc1ccc2ncn(Cc3ccc(Cl)c(Cl)c3)c(=O)c2c1` [V, N-{3-[(3,4-dichlorophenyl)methyl]-4-oxo(3-hydroquinazolin-6-yl)}[benzylamino]carboxamide], 3180 nM.
The molecule `Cc1nc2ccc(NC(=O)OCc3ccccc3)cc2c(=O)n1Cc1ccc(Cl)c(Cl)c1` [VI, N-{3-[(3,4-dichlorophenyl)methyl]-2-methyl-4-oxo(3-hydroquinazolin-6-yl)}(phenylmethoxy)carboxamide] returned a half-inhibitory concentration (IC50) of 20000 nM. This IC50 lies about 6.3-fold higher than the previous one.
With `CC(C)COC(=O)Nc1ccc2ncn(Cc3ccc(Cl)c(Cl)c3)c(=O)c2c1` [VII, N-{3-[(3,4-dichlorophenyl)methyl]-4-oxo(3-hydroquinazolin-6-yl)}(2-methylpropoxy)carboxamide] the figure was 7900 nM; with `O=C(Nc1ccc2ncn(Cc3ccc(Cl)cc3)c(=O)c2c1)OCc1ccccc1` [VIII, N-{3-[(4-chlorophenyl)methyl]-4-oxo(3-hydroquinazolin-6-yl)}(phenylmethoxy)carboxamide], 190 nM; with `C=CCOC(=O)Nc1ccc2ncn(Cc3ccc(Cl)c(Cl)c3)c(=O)c2c1` [X, N-{3-[(3,4-dichlorophenyl)methyl]-4-oxo(3-hydroquinazolin-6-yl)}prop-2-enyloxycarboxamide], 1500 nM.
With `CN(C)CC(=O)OCC(=O)Nc1ccc2c(=O)n(Cc3ccc(Cl)c(Cl)c3)cnc2c1` [XC, (N-{3-[(3,4-dichlorophenyl)methyl]-4-oxo-3-hydroquinazolin-7-yl}carbamoyl)methyl 2-(dimethylamino)acetate] the figure was 310 nM.
With `CCOC(=O)COC(=O)Nc1ccc2c(=O)n(Cc3ccc(Cl)c(Cl)c3)cnc2c1` [XCI, ethyl 2-(N-{3-[(3,4-dichlorophenyl)methyl]-4-oxo-3-hydroquinazolin-7-yl}carbamoyloxy)acetate] the figure was 3770 nM; with `COCCOCCOC(=O)Nc1ccc2ncn(Cc3ccc(Cl)c(Cl)c3)c(=O)c2c1` [XCII, N-{3-[(3,4-dichlorophenyl)methyl]-4-oxo(3-hydroquinazolin-6-yl)}[2-(2-methoxyethoxy)ethoxy]carboxamide], 11700 nM.
